Measured values reported in patent publication US20260234129A1, “NOVEL IMIDAZOLE DERIVATIVE AND USE THEREOF” (PELEMED CO., LTD., priority 2023, published 2026).

Assays:
Experiment in all cases: scanMax kinase panel (Eurofins)
Assay type in all cases: binding
[1] = target: T1, ABL1(Y253F)-phosphorylated (Homo sapiens, UniProt P00519, Y253F); conditions: read-out: % control
T1 construct: purchased Eurofins
Procedure: (§1) The following assay method was performed to evaluate the inhibitory activities of a compound according to the present invention with respect to various enzymes. […] The compound was applied to the enzyme at a concentration of 1 μM, dissolved in DMSO, and the % control was determined according to Equation 1 below.
(§2) Here, the positive control refers to a compound corresponding to 0% control, and the negative control refers to a compound corresponding to 100% control.

[2] = target: T2, CDK2 (Homo sapiens, UniProt P24941); conditions: CDK2, 1 μM; read-out: % control
T2 construct: purchased Eurofins
Procedure: as §1, §2

[3] = target: T3, JAKI(JH1domain-catalytic) (Homo sapiens, UniProt P23458); conditions: read-out: % control
T3 construct: JAKI(JH1domain-catalytic); purchased Eurofins
T3 sequence (P23458 875-1153 limits assumed): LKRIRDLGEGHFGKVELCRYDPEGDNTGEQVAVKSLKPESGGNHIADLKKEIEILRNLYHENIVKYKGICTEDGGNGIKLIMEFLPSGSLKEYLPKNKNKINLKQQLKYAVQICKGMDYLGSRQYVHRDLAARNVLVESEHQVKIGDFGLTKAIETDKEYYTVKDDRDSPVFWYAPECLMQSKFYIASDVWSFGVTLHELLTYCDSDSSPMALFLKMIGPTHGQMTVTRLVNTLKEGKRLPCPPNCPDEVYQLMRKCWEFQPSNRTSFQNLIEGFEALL
Procedure: as §1, §2

[4] = target: T4, TRKB (Homo sapiens, UniProt Q16620); conditions: read-out: % control
T4 construct: purchased Eurofins scanMax kinase panel
Procedure: as §1, §2

[5] = target: T5, ABL1(F317I)-phosphorylated (Homo sapiens, UniProt P00519, F317I); conditions: read-out: % control
T5 construct: purchased Eurofins
Procedure: as §1, §2

[6] = target: T6, MAP3K2 (Homo sapiens, UniProt Q9Y2U5); conditions: MAP3K2, 1 μM; read-out: % control
T6 construct: purchased Eurofins
Procedure: as §1, §2

[7] = target: T7, ABL1-phosphorylated (Homo sapiens, UniProt P00519); conditions: read-out: % control
T7 construct: purchased Eurofins
Procedure: as §1, §2

[8] = target: T8, HIPK2 (Homo sapiens, UniProt Q9H2X6); conditions: HIPK2, 1 μM; read-out: % control
T8 construct: purchased Eurofins scanMax® kinase panel
T8 sequence (Q9H2X6 whole entry): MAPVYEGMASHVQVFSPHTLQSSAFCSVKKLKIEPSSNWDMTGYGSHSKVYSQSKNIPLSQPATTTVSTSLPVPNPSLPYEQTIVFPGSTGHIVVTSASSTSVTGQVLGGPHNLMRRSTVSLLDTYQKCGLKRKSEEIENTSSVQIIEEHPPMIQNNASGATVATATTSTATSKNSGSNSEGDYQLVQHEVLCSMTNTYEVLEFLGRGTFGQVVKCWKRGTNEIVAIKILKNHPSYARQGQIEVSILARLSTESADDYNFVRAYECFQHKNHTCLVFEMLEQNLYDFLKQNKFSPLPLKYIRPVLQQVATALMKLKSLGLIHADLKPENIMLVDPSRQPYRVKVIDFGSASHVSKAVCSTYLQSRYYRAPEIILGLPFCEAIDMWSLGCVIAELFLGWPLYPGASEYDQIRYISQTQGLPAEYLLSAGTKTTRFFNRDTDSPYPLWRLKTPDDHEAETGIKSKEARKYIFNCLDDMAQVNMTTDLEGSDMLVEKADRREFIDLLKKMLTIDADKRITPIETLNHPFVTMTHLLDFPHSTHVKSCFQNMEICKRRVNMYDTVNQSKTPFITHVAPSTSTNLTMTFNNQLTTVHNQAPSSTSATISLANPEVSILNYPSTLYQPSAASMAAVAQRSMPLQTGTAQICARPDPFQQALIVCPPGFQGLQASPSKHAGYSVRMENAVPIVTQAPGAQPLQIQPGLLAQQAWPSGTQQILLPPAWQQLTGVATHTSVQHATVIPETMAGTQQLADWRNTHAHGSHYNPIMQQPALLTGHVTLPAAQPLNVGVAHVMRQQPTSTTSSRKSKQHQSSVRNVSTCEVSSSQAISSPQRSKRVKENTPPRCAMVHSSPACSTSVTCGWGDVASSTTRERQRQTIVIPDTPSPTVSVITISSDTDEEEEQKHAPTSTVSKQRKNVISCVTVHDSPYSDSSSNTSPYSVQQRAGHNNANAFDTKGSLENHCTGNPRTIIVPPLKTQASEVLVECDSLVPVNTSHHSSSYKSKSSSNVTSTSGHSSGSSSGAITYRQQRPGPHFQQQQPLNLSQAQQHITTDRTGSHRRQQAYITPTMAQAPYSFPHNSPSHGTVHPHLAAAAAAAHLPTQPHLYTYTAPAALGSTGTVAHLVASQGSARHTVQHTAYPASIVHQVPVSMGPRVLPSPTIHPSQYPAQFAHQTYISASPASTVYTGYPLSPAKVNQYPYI
Procedure: as §1, §2

[9] = target: T9, ABL1(Q252H)-nonphosphorylated (Homo sapiens, UniProt P00519, Q252H); conditions: read-out: % control
T9 construct: purchased Eurofins
Procedure: as §1, §2

[10] = target: T10, KIT(V559D) (Homo sapiens, UniProt P10721, V559D); conditions: read-out: % control
T10 construct: purchased Eurofins
Procedure: as §1, §2

[11] = target: T11, ERK1 (Homo sapiens, UniProt P27361); conditions: ERK1, 1 μM; read-out: % control
T11 construct: purchased Eurofins scanMax® kinase panel
Procedure: as §1, §2

[12] = target: T12, MEK2 (Homo sapiens, UniProt P36507); conditions: MEK2, 1 μM; read-out: % control
T12 construct: purchased Eurofins
Procedure: as §1, §2

[13] = target: T13, DYRK1B (Homo sapiens, UniProt Q9Y463); conditions: read-out: % control
T13 construct: purchased Eurofins scanMax® kinase panel
T13 sequence (Q9Y463 whole entry): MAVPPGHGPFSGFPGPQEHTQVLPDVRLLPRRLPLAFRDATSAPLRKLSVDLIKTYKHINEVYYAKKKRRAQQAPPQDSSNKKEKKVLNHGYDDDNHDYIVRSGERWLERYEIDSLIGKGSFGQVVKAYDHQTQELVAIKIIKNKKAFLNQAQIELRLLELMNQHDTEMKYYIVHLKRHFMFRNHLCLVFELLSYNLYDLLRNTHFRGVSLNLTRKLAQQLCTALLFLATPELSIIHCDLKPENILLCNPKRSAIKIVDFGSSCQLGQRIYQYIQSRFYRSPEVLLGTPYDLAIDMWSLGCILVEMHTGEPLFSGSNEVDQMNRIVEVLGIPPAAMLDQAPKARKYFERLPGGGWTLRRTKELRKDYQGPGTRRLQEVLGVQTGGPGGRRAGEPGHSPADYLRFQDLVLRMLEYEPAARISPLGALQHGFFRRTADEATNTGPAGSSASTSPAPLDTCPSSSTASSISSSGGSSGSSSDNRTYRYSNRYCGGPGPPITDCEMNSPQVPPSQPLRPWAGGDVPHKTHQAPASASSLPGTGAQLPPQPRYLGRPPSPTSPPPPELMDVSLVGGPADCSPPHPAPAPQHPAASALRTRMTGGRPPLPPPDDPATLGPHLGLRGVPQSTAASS
Procedure: as §1, §2

[14] = target: T14, PAK6 (Homo sapiens, UniProt Q9NQU5); conditions: PAK6, 1 μM; read-out: % control
T14 construct: purchased Eurofins scanMax kinase panel
Procedure: as §1, §2

[15] = target: T15, AXL (Homo sapiens, UniProt P30530); conditions: read-out: % control
T15 construct: purchased Eurofins
Procedure: as §1, §2

[16] = target: T16, PAK2 (Homo sapiens, UniProt Q13177); conditions: PAK2, 1 μM; read-out: % control
T16 construct: purchased Eurofins scanMax kinase panel
Procedure: as §1, §2

[17] = target: T17, PIM2 (Homo sapiens, UniProt Q9P1W9); conditions: PIM2, 1 μM; read-out: % control
T17 construct: purchased Eurofins scanMax kinase panel
T17 sequence (Q9P1W9 whole entry): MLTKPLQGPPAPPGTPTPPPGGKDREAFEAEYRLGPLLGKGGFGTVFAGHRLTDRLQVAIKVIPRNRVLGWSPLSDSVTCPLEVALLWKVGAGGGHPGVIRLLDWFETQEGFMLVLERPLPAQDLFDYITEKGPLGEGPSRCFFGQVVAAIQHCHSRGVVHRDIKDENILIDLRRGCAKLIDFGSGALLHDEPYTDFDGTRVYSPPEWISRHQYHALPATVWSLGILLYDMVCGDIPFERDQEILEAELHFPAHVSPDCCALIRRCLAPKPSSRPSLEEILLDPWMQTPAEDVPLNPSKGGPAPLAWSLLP
Procedure: as §1, §2

[18] = target: T18, HIPK4 (Homo sapiens, UniProt Q8NE63); conditions: HIPK4, 1 μM; read-out: % control
T18 construct: purchased Eurofins
T18 sequence (Q8NE63 whole entry): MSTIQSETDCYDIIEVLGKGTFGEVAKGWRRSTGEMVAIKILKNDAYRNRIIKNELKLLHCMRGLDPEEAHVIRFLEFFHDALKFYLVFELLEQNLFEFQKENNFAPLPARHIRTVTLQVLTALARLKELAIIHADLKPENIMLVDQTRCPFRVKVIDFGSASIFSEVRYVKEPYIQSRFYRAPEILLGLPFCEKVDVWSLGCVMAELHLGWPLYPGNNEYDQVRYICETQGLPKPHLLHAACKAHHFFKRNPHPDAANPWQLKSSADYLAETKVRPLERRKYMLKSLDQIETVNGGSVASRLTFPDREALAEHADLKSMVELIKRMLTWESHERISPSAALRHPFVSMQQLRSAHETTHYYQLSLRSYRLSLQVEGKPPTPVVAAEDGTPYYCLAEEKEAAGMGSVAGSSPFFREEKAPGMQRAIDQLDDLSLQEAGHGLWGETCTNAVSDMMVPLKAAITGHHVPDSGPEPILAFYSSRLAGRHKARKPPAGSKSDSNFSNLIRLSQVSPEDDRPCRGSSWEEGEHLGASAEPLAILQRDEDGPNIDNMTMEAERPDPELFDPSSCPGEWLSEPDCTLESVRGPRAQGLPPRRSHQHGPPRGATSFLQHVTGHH
Procedure: as §1, §2

[19] = target: T19, JAK1(JH2domain-pseudokinase) (Homo sapiens, UniProt P23458); conditions: read-out: % control
T19 construct: JAK1(JH2domain-pseudokinase); purchased Eurofins
T19 sequence (P23458 583-855 limits assumed): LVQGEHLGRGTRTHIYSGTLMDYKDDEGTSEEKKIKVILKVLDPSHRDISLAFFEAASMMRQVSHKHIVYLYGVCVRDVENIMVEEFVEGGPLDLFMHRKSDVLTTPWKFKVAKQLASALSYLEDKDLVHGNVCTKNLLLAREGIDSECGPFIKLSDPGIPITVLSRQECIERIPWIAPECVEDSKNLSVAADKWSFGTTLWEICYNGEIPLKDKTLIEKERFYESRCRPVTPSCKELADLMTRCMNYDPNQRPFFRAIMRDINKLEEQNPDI
Procedure: as §1, §2

[20] = target: T20, ARK5 (Homo sapiens, UniProt O60285); conditions: ARK5, 1 μM; read-out: % control
T20 construct: purchased Eurofins
T20 sequence (O60285 whole entry): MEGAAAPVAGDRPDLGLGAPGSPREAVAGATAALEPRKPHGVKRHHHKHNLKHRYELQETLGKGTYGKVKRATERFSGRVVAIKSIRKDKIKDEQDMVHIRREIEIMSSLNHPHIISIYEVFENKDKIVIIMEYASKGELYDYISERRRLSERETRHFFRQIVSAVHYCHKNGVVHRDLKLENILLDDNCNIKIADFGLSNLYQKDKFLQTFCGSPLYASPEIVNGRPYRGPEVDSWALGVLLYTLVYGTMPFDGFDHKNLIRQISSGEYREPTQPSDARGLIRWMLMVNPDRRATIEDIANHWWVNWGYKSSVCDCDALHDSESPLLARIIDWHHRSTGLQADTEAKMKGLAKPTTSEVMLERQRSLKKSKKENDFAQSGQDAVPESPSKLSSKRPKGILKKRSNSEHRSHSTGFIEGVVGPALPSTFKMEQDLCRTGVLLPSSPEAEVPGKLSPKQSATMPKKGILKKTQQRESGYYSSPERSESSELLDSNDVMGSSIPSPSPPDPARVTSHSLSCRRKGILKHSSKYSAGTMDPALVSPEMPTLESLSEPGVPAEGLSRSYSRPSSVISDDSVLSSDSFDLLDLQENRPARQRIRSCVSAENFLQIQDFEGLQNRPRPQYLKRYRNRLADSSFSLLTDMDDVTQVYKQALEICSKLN
Procedure: as §1, §2

[21] = target: T21, MAP3K3 (Homo sapiens, UniProt Q99759); conditions: MAP3K3, 1 μM; read-out: % control
T21 construct: purchased Eurofins
T21 sequence (Q99759 whole entry): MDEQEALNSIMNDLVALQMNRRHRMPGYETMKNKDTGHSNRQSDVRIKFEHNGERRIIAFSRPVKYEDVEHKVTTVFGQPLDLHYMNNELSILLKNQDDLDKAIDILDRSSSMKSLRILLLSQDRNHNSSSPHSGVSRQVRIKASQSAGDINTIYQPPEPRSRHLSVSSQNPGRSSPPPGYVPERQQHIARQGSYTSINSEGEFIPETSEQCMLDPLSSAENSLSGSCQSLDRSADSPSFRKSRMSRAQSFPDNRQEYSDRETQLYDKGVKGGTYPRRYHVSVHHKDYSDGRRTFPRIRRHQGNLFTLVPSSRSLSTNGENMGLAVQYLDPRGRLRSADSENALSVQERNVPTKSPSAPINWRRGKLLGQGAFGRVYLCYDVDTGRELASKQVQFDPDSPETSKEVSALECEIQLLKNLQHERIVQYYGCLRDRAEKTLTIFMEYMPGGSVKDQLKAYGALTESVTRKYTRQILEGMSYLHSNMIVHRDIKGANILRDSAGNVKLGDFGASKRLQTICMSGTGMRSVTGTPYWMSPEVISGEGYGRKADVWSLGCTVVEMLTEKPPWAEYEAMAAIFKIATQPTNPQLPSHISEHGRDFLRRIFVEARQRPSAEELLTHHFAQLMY
Procedure: as §1, §2

[22] = target: T22, MAP3K1 (Homo sapiens, UniProt Q13233); conditions: MAP3K1, 1 μM; read-out: % control
T22 construct: purchased Eurofins
Procedure: as §1, §2

[23] = target: T23, PAKI (Homo sapiens, UniProt Q13153); conditions: read-out: % control
T23 construct: purchased Eurofins scanMax kinase panel
Procedure: as §1, §2

[24] = target: T24, MEKI (Homo sapiens, UniProt Q02750); conditions: read-out: % control
T24 construct: purchased Eurofins
Procedure: as §1, §2

[25] = target: T25, RET(M918T) (Homo sapiens, UniProt P07949, M918T); conditions: read-out: % control
T25 construct: purchased Eurofins scanMax kinase panel
Procedure: as §1, §2

[26] = target: T26, MEK6 (Homo sapiens, UniProt P52564); conditions: MEK6, 1 μM; read-out: % control
T26 construct: purchased Eurofins scanMax kinase panel
Procedure: as §1, §2

[27] = target: T27, RET(V804L) (Homo sapiens, UniProt P07949, V804L); conditions: read-out: % control
T27 construct: purchased Eurofins scanMax kinase panel
Procedure: as §1, §2

[28] = target: T28, ABL1(H396P)-phosphorylated (Homo sapiens, UniProt P00519, H396P); conditions: read-out: % control
T28 construct: purchased Eurofins
Procedure: as §1, §2

[29] = target: T29, DYRKIA (Homo sapiens, UniProt Q13627); conditions: read-out: % control
T29 construct: purchased Eurofins scanMax® kinase panel
Procedure: as §1, §2

[30] = target: T30, CDK5 (Homo sapiens, UniProt Q00535); conditions: CDK5, 1 μM; read-out: % control
T30 construct: purchased Eurofins scanMax® kinase panel
T30 sequence (Q00535 whole entry): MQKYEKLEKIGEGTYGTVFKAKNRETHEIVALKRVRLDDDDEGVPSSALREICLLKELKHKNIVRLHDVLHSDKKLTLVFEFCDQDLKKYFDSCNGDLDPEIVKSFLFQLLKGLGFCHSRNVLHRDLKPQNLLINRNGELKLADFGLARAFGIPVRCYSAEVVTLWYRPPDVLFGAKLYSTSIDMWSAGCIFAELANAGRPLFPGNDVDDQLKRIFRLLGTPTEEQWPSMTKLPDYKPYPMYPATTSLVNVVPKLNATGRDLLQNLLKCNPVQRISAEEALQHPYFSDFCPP
Procedure: as §1, §2

[31] = target: T31, MEK5 (Homo sapiens, UniProt Q13163); conditions: MEK5, 1 μM; read-out: % control
T31 construct: purchased Eurofins scanMax kinase panel
Procedure: as §1, §2

[32] = target: T32, PAK4 (Homo sapiens, UniProt O96013); conditions: PAK4, 1 μM; read-out: % control
T32 construct: purchased Eurofins scanMax kinase panel
Procedure: as §1, §2

[33] = target: T33, MEK4 (Homo sapiens, UniProt P45985); conditions: MEK4, 1 μM; read-out: % control
T33 construct: purchased Eurofins
Procedure: as §1, §2

Measured: remaining binding at 1 µM

COc1ccc2nc(-c3n[nH]c4ccc(C(=O)N[C@H]5CC[C@H](N)C5)cc34)[nH]c2c1 [Example 32, N-((1S,3S)-3-aminocyclopentyl)-3-(6-methoxy-1H-benzo[d]imidazol-2-yl)-1H-indazole-5-carboxamide]
< 10%: all assays above
